Source: ChEMBL document CHEMBL2074152, “Structural determinants of substrates for the prostaglandin transporter PGT” (Mol Pharmacol, 1996)
pKi: −log10 of the molar value.

What follows are compounds tested against Solute carrier organic anion transporter family member 2A1 (Rattus norvegicus, UniProt Q00910) (assay: TP_TRANSPORTER: inhibition of PGE2 uptake in PGT-expressing HeLa cells).
Assay type: functional, cell-based

Compound | pKi
CCCCC[C@H](O)/C=C/[C@H]1C=CC(=O)[C@@H]1CCCCCCC(=O)O [PROSTAGLANDIN A1] | 6.54
CCCCC[C@H](O)/C=C/C1=C(CCCCCCC(=O)O)C(=O)CC1 [PROSTAGLANDIN B1] | 7.15
CCCCC[C@H](O)/C=C/[C@H]1C(=O)C[C@H](O)[C@@H]1CCCCCCC(=O)O [PROSTAGLANDIN D1] | 6.79
CCCCC[C@H](O)/C=C/[C@@H]1[C@@H](C/C=C\CCCC(=O)O)[C@@H]2C[C@H]1OO2 [PROSTAGLANDIN H2] | 7.42
